Data: patent EP4032896A1, “THIAZOLOPYRIMIDONES AS INHIBITORS OF DDR1/2 AND THERAPEUTIC USES THEREOF” (Fundación del Sector Público Estatal Centro Nacional de …, priority 2021, dated 2022)

What was measured:
DDR1 [1] = target: T1, DDR1 (Homo sapiens, UniProt Q08345); experiment: LanthaScreen Eu-Kinase Binding Assay (TR-FRET tracer displacement), DDR1; conditions: catalytic domain GST Tag DDR1; Kinase Tracer 178
T1 construct: The enzymes were purchased as a catalytic domain GST Tag DDR1(#PR6913A); purchased ThermoFisher PR6913A
T1 sequence (Q08345 610-905 limits assumed): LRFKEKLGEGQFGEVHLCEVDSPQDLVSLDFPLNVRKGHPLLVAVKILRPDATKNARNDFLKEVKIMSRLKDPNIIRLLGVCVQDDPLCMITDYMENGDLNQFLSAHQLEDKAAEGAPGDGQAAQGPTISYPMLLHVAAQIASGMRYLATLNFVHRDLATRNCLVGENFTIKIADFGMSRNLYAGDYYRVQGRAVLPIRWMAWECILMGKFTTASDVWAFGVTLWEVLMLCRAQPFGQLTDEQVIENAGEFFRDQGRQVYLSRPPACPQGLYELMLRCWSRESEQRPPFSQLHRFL
Text: (§1) DDR1/2 binding assay: The binding assay relies on the LanthaScreen ™ Eu-Kinase Binding Assay (ThermoFisher Scientfic). This is a kinase assay platform based on measuring the binding and displacement of an Alexa Fluor® conjugate of an ATP-competitive kinase inhibitor or tracer at a kinase active site (Kinase Tracer 178. #PV5593). Binding of the tracer to the kinase is detected by addition of a europium (Eu)-labeled anti-GST antibody (#PV 5594) which specifically labels the kinase of interest. This binding results in a high degree of fluorescence resonance energy transfer (FRET), whereas displacement of the tracer with a kinase inhibitor results in a loss of FRET. The enzymes were purchased as a catalytic domain GST Tag DDR1(#PR6913A) and DDR2 (#PR7167A) from ThermoFisher. Assay conditions were as indicated by the kit manufacturers. Assays were performed in 384-well plates. The final read out was generated using an EnVision plate reader (Perkin-Elmer). The emission ratio was calculated by dividing the acceptor/tracer emission (665 nm) by the antibody/donor emission (615 nm). Values were plotted against the inhibitor concentration and fit to a sigmoid dose-response curve using Activity base by IDBS software.

DDR2 = target: T2, DDR2 (Homo sapiens, UniProt Q16832); experiment: LanthaScreen Eu-Kinase Binding Assay (TR-FRET tracer displacement), DDR2; conditions: catalytic domain GST Tag DDR2; Kinase Tracer 178
T2 construct: The enzymes were purchased as a catalytic domain GST Tag DDR1(#PR6913A) and DDR2 (#PR7167A); purchased ThermoFisher PR7167A
T2 sequence (Q16832 563-849 limits assumed): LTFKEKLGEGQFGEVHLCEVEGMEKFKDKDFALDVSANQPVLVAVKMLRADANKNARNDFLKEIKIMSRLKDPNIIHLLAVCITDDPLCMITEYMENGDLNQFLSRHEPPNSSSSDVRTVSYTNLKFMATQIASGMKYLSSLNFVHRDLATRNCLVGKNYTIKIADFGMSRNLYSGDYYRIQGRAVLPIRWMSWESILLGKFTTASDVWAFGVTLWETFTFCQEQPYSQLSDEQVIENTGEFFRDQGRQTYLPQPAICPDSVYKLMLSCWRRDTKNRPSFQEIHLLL
Text: as §1

DDR1 [2] = target: T3, DDR1 (Mus musculus, UniProt Q03146); experiment: Cellular assay: inhibition of Collagen I-induced DDR1 autophosphorylation in HEK293T cells transiently transfected with DDR1 plasmid (Western blot); format: cell-based, human; conditions: pcDNA3.1 DDR1 WT mouse plasmid, compound 1 h, then 10 µg/mL Collagen I 1 h, P-DDR1 (Y513), read-out: pDDR1 EC50
T3 construct: expressed in transfected cells; host or cells: HEK293T
T3 sequence (Q03146 20-911): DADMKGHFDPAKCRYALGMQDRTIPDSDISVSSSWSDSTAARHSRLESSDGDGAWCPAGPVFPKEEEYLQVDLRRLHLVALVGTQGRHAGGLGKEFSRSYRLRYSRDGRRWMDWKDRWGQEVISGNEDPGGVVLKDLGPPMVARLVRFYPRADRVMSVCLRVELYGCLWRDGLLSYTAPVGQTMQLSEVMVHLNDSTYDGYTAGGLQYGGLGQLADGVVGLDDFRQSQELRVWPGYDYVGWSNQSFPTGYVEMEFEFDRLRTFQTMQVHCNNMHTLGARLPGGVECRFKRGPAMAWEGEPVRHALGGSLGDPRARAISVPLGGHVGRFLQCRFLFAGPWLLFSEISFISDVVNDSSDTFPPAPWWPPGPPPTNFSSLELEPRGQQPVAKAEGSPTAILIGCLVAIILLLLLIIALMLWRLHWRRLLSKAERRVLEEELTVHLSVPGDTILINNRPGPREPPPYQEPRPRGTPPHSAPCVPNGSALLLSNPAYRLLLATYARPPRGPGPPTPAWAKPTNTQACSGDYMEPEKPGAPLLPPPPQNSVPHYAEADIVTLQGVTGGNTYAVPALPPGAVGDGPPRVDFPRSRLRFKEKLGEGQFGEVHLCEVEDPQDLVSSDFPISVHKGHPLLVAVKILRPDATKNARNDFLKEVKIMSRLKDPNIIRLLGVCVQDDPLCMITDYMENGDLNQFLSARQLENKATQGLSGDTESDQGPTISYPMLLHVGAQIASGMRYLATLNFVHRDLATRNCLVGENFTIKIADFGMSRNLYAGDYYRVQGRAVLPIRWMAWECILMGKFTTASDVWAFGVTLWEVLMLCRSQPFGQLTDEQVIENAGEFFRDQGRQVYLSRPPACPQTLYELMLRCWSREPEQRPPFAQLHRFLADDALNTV
Procedure: DDR1/2 cellular assay: Transient transfection of HEK293T cells with DDR1 plasmid is used to study the inhibition of the autophosphorylation of DDR1 induced by Collagen I in cells. HEK293T are seeded, 6x10^5 cells per well in 6-well plates and incubated for 6 h at 37 °C, 5% CO2. Then, cells are transfected using Effectene reactive (Quiagen) with pcDNA3.1 DDR1 WT mouse plasmid. Cells are incubated with transfection complexes under normal growth conditions for 24 h. After that, medium is replaced with fresh medium and cells are incubated for an additional 18 h. Eight serial 1:3 compound dilutions are made in DMSO. The compounds are added to each well of 6 well cell plates and are incubated at 37 °C under CO2 atmosphere 1 h. DDR1's autophosphorylation is stimulated by 1h treatment with 10 µg/mL Collagen I. Then, cells are washed in PBS, lyse adding 100 µl of complete RIPA protein lysis buffer (RIPA Buffer, 1 mM DTT, 5 mM Bezamidine, 10 µg/mL Aprotinin, 10 µg/mL Leupeptin, 710 ng/mL Pepstatin A, 100 µg/mL Trypsin Inhibitor, 40 µg/mL Bestatin, completed with PhosSTOP EASYpack and complete Mini, EDTA-free) and incubated 20 minutes at 4 °C and then centrifugated. Lysates are kept at -80 °C. The protein content of the lysates is determined by DC protein assay (Biorad, Ref. 5000116). The proteins are resolved by SDS-PAGE and transferred to nitrocellulose membrane (GE Healthcare #10600003). The membranes are incubated overnight at 4 °C with antibodies specific for DDR1 (D1G6) (Cell signaling #5583), P-DDR1 (Y513) (E1N8F) (Cell Signaling # 14531) they are washed and then incubated with Alexa Fluor 680 goat anti-rabbit IgG secondary antibodies (Invitrogen, A21076). The bands are visualized and quantified using an Odyssey infrared imaging system (Li-Cor Biosciences). The percentage of DDR1 phosphorylation is finally plotted against concentration for each compound and EC50s for intracellular DDR1 inhibition are calculated using ActivityBase from IDBS.

Compound | IC50 (DDR1 [1]) [µM] | IC50 (DDR2) [µM] | EC50 (DDR1 [2]) [µM]
O=c1ccnc2sc(-c3ccnc(Nc4ccccc4)n3)c(-c3ccccc3)n12 [Compound 29, 3-Phenyl-2-(2-phenylamino-pyrimidin-4-yl)-thiazolo[3,2-a]pyrimidin-5-one] | 0.0699 | 0.186 | 0.339
NS(=O)(=O)c1cccc(Nc2nccc(-c3sc4nccc(=O)n4c3-c3ccccc3)n2)c1 [Compound 30, 3-[4-(5-Oxo-3-phenyl-5H-thiazolo[3,2-a]pyrimidin-2-yl)-pyrimidin-2-ylamino]-benzenesulfonamide] | 0.0139 | 0.05 | 0.0874
O=c1ccnc2sc(-c3ccnc(Nc4cccc(N5CCN(CCO)CC5)c4)n3)c(-c3ccccc3)n12 [Compound 31, 2-(2-{3-[4-(2-Hydroxy-ethyl)-piperazin-1-yl]-phenylamino}-pyrimidin-4-yl)-3-phenyl-thiazolo[3,2-a]pyrimidin-5-one] | 0.0155 | 0.018 | 0.192
CN1CCN(c2ccc(Nc3nccc(-c4sc5nccc(=O)n5c4-c4ccccc4)n3)cc2)CC1 [Compound 34, 2-{2-[4-(4-Methyl-piperazin-1-yl)-phenylamino]-pyrimidin-4-yl}-3-phenyl-thiazolo[3,2-a]pyrimidin-5-one] | 0.0134 | 0.0394 | 0.0157
NS(=O)(=O)c1cccc(Nc2nccc(-c3sc4nccc(=O)n4c3-c3cccc(Cl)c3)n2)c1 [Compound 40, 3-{4-[3-(3-Chloro-phenyl)-5-oxo-5H-thiazolo[3,2-a]pyrimidin-2-yl]-pyrimidin-2-ylamino}-benzenesulfonamide] | 0.0164 | 0.0616 | 0.113
COc1cnc(Nc2cccc(S(N)(=O)=O)c2)nc1-c1sc2nccc(=O)n2c1-c1ccccc1 [Compound 69, 3-[5-Methoxy-4-(5-oxo-3-phenyl-5H-thiazolo[3,2-a]pyrimidin-2-yl)-pyrimidin-2-ylamino]-benzenesulfonamide] | 6.88 | 8.62 | –
Cc1nc2sc(-c3ccnc(Nc4cccc(N5CCN(CCO)CC5)c4)n3)c(-c3ccccc3)n2c(=O)c1C(C)C [Compound 76, 2-(2-{3-[4-(2-Hydroxy-ethyl)-piperazin-1-yl]-phenylamino}-pyrimidin-4-yl)-6-isopropyl-7-methyl-3-phenyl-thiazolo[3,2-a]pyrimidin-5-one] | 0.0644 | 0.292 | –

Stronger by IC50 (DDR1 [1]), values ahead:

IC50 (DDR1 [1]) [µM] | IC50 (DDR2) [µM] | EC50 (DDR1 [2]) [µM] | Compound
0.0125 | 0.0333 | – | CC(C)c1cc(=O)n2c(-c3ccccc3)c(-c3ccnc(Nc4cccc(N5CCN(CCO)CC5)c4)n3)sc2n1 [Compound 73, 2-(2-{3-[4-(2-Hydroxy-ethyl)-piperazin-1-yl]-phenylamino}-pyrimidin-4-yl)-7-isopropyl-3-phenyl-thiazolo[3,2-a]pyrimidin-5-one]
0.0116 | 0.029 | 0.0314 | NS(=O)(=O)c1cccc(Nc2nccc(-c3sc4nccc(=O)n4c3-c3ccc(Cl)cc3)n2)c1 [Compound 43, 3-{4-[3-(4-Chloro-phenyl)-5-oxo-5H-thiazolo[3,2-a]pyrimidin-2-yl]-pyrimidin-2-ylamino}-benzenesulfonamide]
0.00703 | 0.0215 | 0.0353 | CN1CCN(c2ccc(Nc3nccc(-c4sc5nccc(=O)n5c4-c4ccccc4Cl)n3)cc2)CC1 [Compound 39, 3-(2-Chloro-phenyl)-2-{2-[4-(4-methyl-piperazin-1-yl)-phenylamino]-pyrimidin-4-yl}-thiazolo[3,2-a]pyrimidin-5-one]
0.00624 | 0.0369 | 0.0404 | O=c1ccnc2sc(-c3ccnc(Nc4cccc(N5CCN(CCO)CC5)c4)n3)c(-c3cccc(Cl)c3)n12 [Compound 41, 3-(3-Chloro-phenyl)-2-(2-{3-[4-(2-hydroxy-ethyl)-piperazin-1-yl]-phenylamino}-pyrimidin-4-yl)-thiazolo[3,2-a]pyrimidin-5-one]
0.0058 | 0.0179 | 0.0307 | CN1CCN(c2ccc(Nc3nccc(-c4sc5nccc(=O)n5c4-c4cccc(Cl)c4)n3)cc2)CC1 [Compound 42, 3-(3-Chloro-phenyl)-2-{2-[4-(4-methyl-piperazin-1-yl)-phenylamino]-pyrimidin-4-yl}-thiazolo[3,2-a]pyrimidin-5-one]
0.00519 | 0.0242 | 0.036 | NS(=O)(=O)c1cccc(Nc2nccc(-c3sc4nccc(=O)n4c3-c3ccccc3Cl)n2)c1 [Compound 37, 3-{4-[3-(2-Chloro-phenyl)-5-oxo-5H-thiazolo[3,2-a]pyrimidin-2-yl]-pyrimidin-2-ylamino}-benzenesulfonamide]
0.00423 | 0.0126 | 0.00763 | CN1CCN(c2ccc(Nc3nccc(-c4sc5nccc(=O)n5c4-c4ccc(Cl)cc4)n3)cc2)CC1 [Compound 45, 3-(4-Chloro-phenyl)-2-{2-[4-(4-methyl-piperazin-1-yl)-phenylamino]-pyrimidin-4-yl}-thiazolo[3,2-a]pyrimidin-5-one]
0.00422 | 0.0166 | 0.0281 | O=c1ccnc2sc(-c3ccnc(Nc4cccc(N5CCN(CCO)CC5)c4)n3)c(-c3ccccc3Cl)n12 [Compound 38, 3-(2-Chloro-phenyl)-2-(2-{3-[4-(2-hydroxy-ethyl)-piperazin-1-yl]-phenylamino}-pyrimidin-4-yl)-thiazolo[3,2-a]pyrimidin-5-one]
0.00273 | 0.0117 | 0.0249 | O=c1ccnc2sc(-c3ccnc(Nc4cccc(N5CCN(CCO)CC5)c4)n3)c(-c3ccc(Cl)cc3)n12 [Compound 44, 3-(4-Chloro-phenyl)-2-(2-{3-[4-(2-hydroxy-ethyl)-piperazin-1-yl]-phenylamino}-pyrimidin-4-yl)-thiazolo[3,2-a]pyrimidin-5-one]
